Molecular target: T1, CAMKK2 (CaMKK beta) (Homo sapiens, UniProt Q96RR4)
T1 construct: purchased Thermo Fisher Scientific (Life Technologies) SelectScreen
Assay: SelectScreen LanthaScreen
Type: binding
Conditions: read-out: % displacement
In short: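 Percent values come from Thermo SelectScreen profiling of NU5455, combining activity and binding assays. CSF1R was run in Z'LYTE format at Km app ATP, and CAMK1 in Adapta format with ATP listed at 10.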

T1 sequence (Q96RR4 whole entry): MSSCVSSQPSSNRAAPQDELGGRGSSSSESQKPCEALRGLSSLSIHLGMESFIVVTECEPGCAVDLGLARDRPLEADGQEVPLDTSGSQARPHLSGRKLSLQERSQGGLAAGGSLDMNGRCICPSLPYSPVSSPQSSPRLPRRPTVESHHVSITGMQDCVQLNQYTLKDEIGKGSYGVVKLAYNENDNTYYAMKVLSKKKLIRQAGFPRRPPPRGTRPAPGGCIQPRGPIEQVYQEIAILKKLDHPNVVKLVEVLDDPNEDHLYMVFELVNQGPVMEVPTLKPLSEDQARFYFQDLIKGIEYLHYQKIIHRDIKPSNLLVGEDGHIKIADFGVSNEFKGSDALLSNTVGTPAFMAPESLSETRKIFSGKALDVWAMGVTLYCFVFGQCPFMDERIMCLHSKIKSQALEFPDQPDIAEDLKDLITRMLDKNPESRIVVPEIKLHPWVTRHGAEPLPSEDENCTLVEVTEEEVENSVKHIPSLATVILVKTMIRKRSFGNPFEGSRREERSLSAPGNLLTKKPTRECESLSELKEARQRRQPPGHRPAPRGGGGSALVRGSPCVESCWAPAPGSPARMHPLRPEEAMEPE

## CN(C(=O)CN1CCOCC1)c1ccc2sc3c(-c4cccc5c(=O)cc(N6CC7CCC(C6)O7)oc45)cccc3c2c1 [NU5455]
  inhibition at 1 µM: 0.9%
